Reference: EPA's ToxValDB 9.5
Converted amounts (≈) assume the structure as drawn. “And” between values parts separate entries of the source, which are not always exact repeats. Identical values can stand only once.

What was measured:
Rattus norvegicus [1] = settings: for LC50 / LD50: acute
Oryctolagus sp. = settings: New Zealand; for LD50: acute
Rattus norvegicus [2] = settings: subchronic; oral; gavage; M; Sprague-Dawley; Food Consumption: increase + Urinalysis: Ketone body decrease + Blood Chemistry: T-Cho increase, PL increase, TP increase + Absolute Organ …
Mus musculus = settings: duration: 6 hours, inhalation, Swiss; for NOAEL: reproduction developmental
[3] = subchronic, duration: 30 days, oral, diet, Sprague-Dawley

## C=C(C#N)C(=O)OCC [Ethyl cyanoacrylate]
Rattus norvegicus [1]; inhalation, Wistar
  LC50: < 21.1 µg/mL
Rattus norvegicus [1]; oral, gavage
  LD50: > 5000 mg/kg
Oryctolagus sp.; dermal, occlusive
  LD50: > 2000 mg/kg

## CC(C)OC(C)C [Isopropyl ether]
Rattus norvegicus [2]
  NOEL: < 100 mg/kg-day
Rattus norvegicus [1]; reproduction developmental, duration: 13 weeks, inhalation, Sprague-Dawley
  NOAEL: 2010 mg/m3
Rattus norvegicus [1]; reproduction developmental, duration: 10 days, inhalation, F, Sprague-Dawley
  NOAEL: 1800 mg/m3
Oryctolagus sp.; dermal, non-occlusive
  LD50: > 2000 mg/kg
Oryctolagus sp.; oral
  LD50: 4500 mg/kg

## CN=C=O [Methyl isocyanate]
Mus musculus; developmental
  LOAEL: < 2.33 mg/m3
Mus musculus; F
  NOAEL: > 7 mg/m3
Mus musculus; generation: F0
  NOAEL: > 7 mg/m3
Rattus norvegicus [1]; developmental, duration: 0.5 hours, inhalation
  LOAEL: < 0.495 mg/m3
Rattus norvegicus [1]; reproduction developmental, duration: 8 minutes, inhalation, whole body, Wistar, generation: F0
  NOAEL: > 3140 mg/m3
Rattus norvegicus [1]; reproduction developmental, duration: 0.5 hours, inhalation, F
  LOAEL: < 0.495 mg/m3
Rattus norvegicus [1]; reproduction developmental, duration: 0.5 hours, inhalation, generation: F0
  NOAEL: > 0.824 mg/m3

## CN(C)CCN(C)C [N,N,N',N'-Tetramethylethylenediamine]
Rattus norvegicus [1]; inhalation
  LC50: > 5610 mg/m3
Rattus norvegicus [1]; inhalation, Sprague-Dawley
  LC50: > 5610 mg/m3
Rattus norvegicus [1]; inhalation, Wistar
  LC50: 6260 mg/m3
Oryctolagus sp.; dermal
  LD50: 1230 mg/kg

## CCNc1cccc(C)c1 [N-Ethyl-3-methylaniline]
Rattus norvegicus [1]; inhalation
  LC50: 2.4 µg/mL (≈ 17.8 µM)
Rattus norvegicus [1]; oral, Sprague-Dawley
  LD50: 787 mg/kg and 478 mg/kg
Rattus norvegicus [1]; oral, gavage, Wistar
  LD50: 650 mg/kg
Rattus norvegicus [1]; short-term, duration: 2 weeks, inhalation, Sprague-Dawley
  NOAEL: 31 mg/m3
Oryctolagus sp.; dermal
  LD50: > 2000 mg/kg

## CN1C(=O)c2ccccc2C1=O [N-Methylphthalimide]
Rattus norvegicus [1]; oral, Spartan
  LD50: > 500 mg/kg
Rattus norvegicus [1]; oral, gavage, Spartan
  LD50: > 500 mg/kg
Rattus norvegicus [1]; reproduction developmental, duration: 4 weeks, oral, gavage, F, Sprague-Dawley
  NOAEL: 150 mg/kg-day
Rattus norvegicus [1]; reproduction developmental, duration: 4 weeks, oral, gavage, M, Sprague-Dawley
  NOAEL: ≥ 600 mg/kg-day
Rattus norvegicus [1]; reproduction developmental, duration: 4 weeks, oral, gavage, Sprague-Dawley, generation: F0
  NOAEL: 150 mg/kg-day
Rattus norvegicus [1]; reproduction developmental, duration: 4 weeks, oral, gavage, Sprague-Dawley, generation: F1
  NOAEL: < 50 mg/kg-day
Rattus norvegicus [1]; reproduction developmental, oral, gavage, F
  NOAEL: 150 mg/kg-day
Rattus norvegicus [1]; reproduction developmental, oral, gavage, generation: F0
  NOAEL: 150 mg/kg-day
Rattus norvegicus [1]; reproduction developmental, oral, gavage, generation: F1
  NOAEL: 50 mg/kg-day
Rattus norvegicus [1]; [3]
  LOAEL (% diet): 0.5
  NOAEL (% diet): 0.25
Oryctolagus sp.; dermal, occlusive
  LD50: > 2000 mg/kg
Oryctolagus sp.; developmental, duration: 6 days, oral, gavage
  NOAEL: > 500 mg/kg-day
